Test results taken from patent publication US20210138006A1, “Systems, Methods, and Compositions for Treating or Preventing Bacterial Infection and for Reducing or Preventing Bacterial Overpopulation” (BRIGHAM YOUNG UNIVERSITY, priority 2018, published 2021).

Test system: honeybees (Apis mellifera)
Type: in vivo
Details: after fall inspection
Description: Treatment Study: This study provides disclosure relating to the potential effectiveness of using phages, such as PL phages, when treating healthy beehives that are not at risk for AFB.
This combined not-at-risk preventative and safety treatment study using PL phages occurred when 96 beehives were observed and assigned to one of three groups to either be control hives, hives treated preventative PL phages, or hives treated with preventative Tylan antibiotic.
Study Design: Test animals—A total of 96 colonies (hives) of honeybees (Apis mellifera) were previously established in two near-by apiaries. Each of the colonies had to meet the following four criteria: a viable laying queen, contain approximately 40,000 or more adult worker bees, have uncapped brood, and have no visible signs of American Foulbrood. All 96 hives met the criteria and were included in the study.
Route of administration: Oral.
Treatment: PL phage cocktail diluted in sugar water.
Objective and design: The objective was to determine the comparative health of beehives left without a treatment to hives prophylactically treated with PL phages or Tylan antibiotic for the prevention of AFB in a longitudinal study.
All 96 beehives were inspected in spring and fall using a 3-brood rack approach, wherein observation of three full brood racks constituted a complete inspection to look for AFB. Hives that looked unusual were inspected beyond the 3-brood racks. For each hive observation upon signs of AFB, the colonies were to be rated on a 0-3 scale based on a modification of the method proposed by Hitchcock et al. (1970). Frames were rated as follows:
For each hive inspected, other observations were also noted, such as signs of chalkbrood, European Foulbrood (EFB), apparent mite infestation, queen health (based on laying patterns, etc.), other obvious disorders, and any colony loss.
Results: AFB was not detected in any hive in any group throughout the study. […] For this study, a hive was counted as “diseased” if it had chalkbrood, had European Foulbrood, or struggled to thrive. […]

With `CC[C@H]1OC(=O)C[C@@H](O)[C@H](C)[C@@H](O[C@@H]2O[C@H](C)[C@@H](O[C@H]3C[C@@](C)(O)[C@@H](O)[C@H](C)O3)[C@H](N(C)C)[C@H]2O)[C@@H](CC=O)C[C@@H](C)C(=O)/C=C/C(C)=C/[C@@H]1CO[C@@H]1O[C@H](C)[C@@H](O)[C@@H](OC)[C@H]1OC` [Tylan] the “% Healthy Hives (positive health survival rate)” value (32 hives per group, control 90.6%) was 62.5%, the “Diseased or Dead Hives” value (of 32 hives per group, control 3) was 12 and the hives remained healthy (of 32 hives per group, control 29) was 20.
